Measurements as given in ChEMBL document CHEMBL3244031, “Synthesis of octanoyl[8-leucyl]angiotensin II, a lipophilic angiotensin antagonist” (J Med Chem, 1977).
Where a SMILES comes first, the peptide text is derived from it. The star is where a group is joined. Octanoyl = CCCCCCCC(=O)*

Legend:
[1] = target: T1, Angiotensin II receptor (Rattus norvegicus) (UniProt P29089+P25095+P35351); test: Antagonist activity at angiotensin 2 receptor in rat uterus assessed as concentration required to reduce maximum response induced by agonist by one-half after 15 mins; format: tissue-based
Cavia porcellus [2] = test: Antagonist activity at angiotensin 2 receptor in guinea pig ileum assessed as time required for recovery of organ's response at 2 X 10^-7 M administered 3 mins prior to angiotensin-2 challenge followed by compound washout at 2 mins post challenge; format: tissue-based
Angiotensin II receptor = target: T2, Angiotensin II receptor (Rattus norvegicus, UniProt P29089+P25095+P35351); test: Antagonist activity at angiotensin 2 receptor in rat uterus assessed as inhibition of angiotensin-2-induced effect after 15 mins; format: tissue-based
T2 sequence (P29089 whole entry): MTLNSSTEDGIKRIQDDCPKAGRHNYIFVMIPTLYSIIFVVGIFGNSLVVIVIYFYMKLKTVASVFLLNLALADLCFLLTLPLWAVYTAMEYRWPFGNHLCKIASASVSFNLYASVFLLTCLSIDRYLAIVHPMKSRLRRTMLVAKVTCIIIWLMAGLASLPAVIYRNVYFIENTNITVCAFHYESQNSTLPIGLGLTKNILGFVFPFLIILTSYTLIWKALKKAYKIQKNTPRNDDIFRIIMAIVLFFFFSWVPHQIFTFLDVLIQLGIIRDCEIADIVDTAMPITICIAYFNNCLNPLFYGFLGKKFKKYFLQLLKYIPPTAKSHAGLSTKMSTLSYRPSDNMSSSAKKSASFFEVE
T2 sequence (P25095 whole entry): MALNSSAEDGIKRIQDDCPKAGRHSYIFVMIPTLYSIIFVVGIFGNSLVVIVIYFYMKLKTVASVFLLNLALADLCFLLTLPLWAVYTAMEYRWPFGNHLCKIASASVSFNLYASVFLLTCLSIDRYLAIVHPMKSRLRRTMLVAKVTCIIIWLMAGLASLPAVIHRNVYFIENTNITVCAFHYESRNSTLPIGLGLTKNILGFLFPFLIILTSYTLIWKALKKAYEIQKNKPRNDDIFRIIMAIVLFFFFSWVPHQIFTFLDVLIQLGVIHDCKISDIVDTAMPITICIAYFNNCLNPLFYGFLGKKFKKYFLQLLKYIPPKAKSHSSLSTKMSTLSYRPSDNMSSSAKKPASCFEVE
T2 sequence (P35351 whole entry): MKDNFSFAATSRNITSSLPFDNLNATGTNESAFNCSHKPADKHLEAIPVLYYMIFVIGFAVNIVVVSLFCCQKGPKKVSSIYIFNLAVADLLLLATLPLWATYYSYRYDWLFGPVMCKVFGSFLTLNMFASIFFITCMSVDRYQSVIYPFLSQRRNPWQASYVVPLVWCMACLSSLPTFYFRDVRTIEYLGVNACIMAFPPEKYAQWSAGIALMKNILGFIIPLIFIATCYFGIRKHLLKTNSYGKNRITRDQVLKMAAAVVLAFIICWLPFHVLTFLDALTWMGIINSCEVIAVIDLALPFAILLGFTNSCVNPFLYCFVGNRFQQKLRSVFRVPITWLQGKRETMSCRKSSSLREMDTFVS

Rattus norvegicus [3] = test: Antihypertensive activity in iv dosed rat assessed as dose required to inhibit angiotensin-2-induced increase in blood pressure; format: functional
[4] = target: T1, Angiotensin II receptor (Rattus norvegicus); test: Antagonist activity at angiotensin 2 receptor in rat uterus assessed as time required for recovery of organ's response at 2 X 10^-7 M administered 3 mins prior to angiotensin-2 challenge followed by compound washout at 2 mins post challenge; format: tissue-based
Cavia porcellus [5] = species: Cavia porcellus; test: Agonist activity at angiotensin 2 receptor in guinea pig ileum relative to angiotensin-2; format: tissue-based
Cavia porcellus [6] = species: Cavia porcellus; test: Antagonist activity at angiotensin 2 receptor in guinea pig ileum assessed as concentration required to reduction of angiotensin-2-induced maximum response by one-half after 15 mins; format: tissue-based
Rattus norvegicus [7] = test: Antihypertensive activity in iv dosed rat assessed as time required for recovery of angiotensin-2-induced increase in blood pressure; format: functional, organism-based
Rattus norvegicus [8] = test: Increase in blood pressure in iv dosed rat relative to angiotensin-2; format: functional
[9] = Antagonist activity at angiotensin 2 receptor in guinea pig ileum assessed as inhibition of angiotensin-2-induced effect after 15 mins; format: tissue-based; conditions: Cavia porcellus, 0.25 h, read-out: pA2 (converted)
[10] = Partition coefficient, log K of the compound in n-BuOH-HOAc-H2O; format: physicochemical
[11] = target: T1, Angiotensin II receptor (Rattus norvegicus); test: Agonist activity at angiotensin 2 receptor in rat uterus relative to angiotensin-2; format: tissue-based
Cavia porcellus [12] = test: Antagonist activity at angiotensin 2 receptor in guinea pig ileum assessed as time required for recovery of organ's response at 2 X 10^-8 M administered 3 mins prior to angiotensin-2 challenge followed by compound washout at 2 mins post challenge; format: tissue-based
[13] = target: T1, Angiotensin II receptor (Rattus norvegicus); test: Antagonist activity at angiotensin 2 receptor in rat uterus assessed as time required for recovery of organ's response at 2 X 10^-8 M administered 3 mins prior to angiotensin-2 challenge followed by compound washout at 5 mins post challenge; format: tissue-based

| Molecule | pAh [1] | T1/2 (Cavia porcellus [2]) [min] | pA2 (Angiotensin II receptor) | Activity (Rattus norvegicus [3]) [ug/min.kg] | T1/2 [4] [min] | Activity (Cavia porcellus [5]) [%] | pAh (Cavia porcellus [6]) | T1/2 (Rattus norvegicus [7]) [min] | Activity (Rattus norvegicus [8]) [%] | Kb [9] [nM] | K [10] | Activity [11] [%] | T1/2 (Cavia porcellus [12]) [min] | T1/2 [13] [min] |
| --- | --- | --- | --- | --- | --- | --- | --- | --- | --- | --- | --- | --- | --- | --- |
| CCCCCCCC(=O)N[C@@H](CC(=O)O)C(=O)N[C@@H](CCCNC(=N)N)C(=O)N[C@H](C(=O)N[C@@H](Cc1ccc(O)cc1)C(=O)N[C@H](C(=O)N[C@@H](Cc1cnc[nH]1)C(=O)N1CCC[C@H]1C(=O)N[C@@H](CC(C)C)C(=O)O)[C@@H](C)CC)C(C)C (Octanoyl-DRVYIHPL-OH) | 6 | 1.7 | 8.42 | 2.3 | 6.6 | 0.15 | 6.2 | 12 | 0.1 | 22.9 | 7 | 0.21 |  |  |
| H-DRVYIHPL-OH | 6.2 |  | 8.33 | 10.2 |  | 0.016 | 7.3 | 12 | 0.09 | 1.2 | 0.18 | 0.025 | 3.8 | 28.1 |
